Test results reported in ChEMBL document CHEMBL1275420, “Transfer of embB codon 306 mutations into clinical Mycobacterium tuberculosis strains alters susceptibility to ethambutol, isoniazid, and rifampin” (2008).
Values after ≈ are worked out from the molar mass of the structure shown.

test system: Mycobacterium tuberculosis; experiment: Antimycobacterial activity against Mycobacterium tuberculosis isolate 210 at 37 degC after 10 to 11 days by radiometric Bactec 460TB method; format: functional

With `CC[C@@H](CO)NCCN[C@@H](CC)CO` [ETHAMBUTOL] as the compound, how does the MIC read?
The MIC was 2 µg/mL (≈ 9.79 µM).

For `NNC(=O)c1ccncc1` [ISONIAZID], which MIC is on record?
The MIC was 0.05 µg/mL (≈ 0.365 µM).

How did the MIC turn out when `CO[C@H]1/C=C/O[C@@]2(C)Oc3c(C)c(O)c4c(O)c(c(/C=N/N5CCN(C)CC5)c(O)c4c3C2=O)NC(=O)/C(C)=C\C=C\[C@H](C)[C@H](O)[C@@H](C)[C@@H](O)[C@@H](C)[C@H](OC(C)=O)[C@@H]1C` [RIFAMPIN] was run?
The MIC was 0.05 µg/mL (≈ 0.0608 µM).
